Test: Agilent ZORBAX 300 SB-C18, 150 × 1 mm, 3.5 µm; A: water + 0.01% heptafluorobutyric acid; B: acetonitrile + 0.01% heptafluorobutyric acid; gradient (min/%B) 0/0 100/90
Conditions: stereoisomer not certain
Compound `CCCCc1ccc(-n2c(CCC(=O)O)ccc2-c2ccccc2)cc1` has an LC retention time of 18.1 min. Work on `NCCc1csc2c1CCCC2` yielded an LC retention time of 9.41 min. `Cc1[nH]c(C)c(C(=O)Nc2ccccc2)c1C` gave an LC retention time of 11.9 min. In the case of `CCCCC1(C)NC(=S)N(c2ccc(C)cc2)N1` (centres undefined), the LC retention time is reported as 15.1 min. With `COCCCN` the LC retention time was 5.72 min. Work on `CN(C)CCO` yielded an LC retention time of 3.24 min. `CC1=NC(=O)NC(c2ccccc2)C1C(=O)OC(C)C(C)(C)C` (centres undefined) showed an LC retention time of 13.9 min. Work on `CC1(C)CC(NC(=O)C(=O)NCCc2ccccc2)CC(C)(C)N1` yielded an LC retention time of 9.44 min. `O=C(O)CC(CC(=O)O)c1ccccn1` showed an LC retention time of 5.88 min. `CC(C)(CO)Nc1c[nH]c(=O)[nH]c1=O` showed an LC retention time of 6.01 min. With `CCn1c(C)c(C(C)=O)c(C(C)=O)c1C` the LC retention time was 9.56 min. `COc1ccc2c3c1OC1C(=O)CCC4(O)C(C2)N(C)CCC314` (centres undefined) gave an LC retention time of 8.39 min. In the case of `NC1c2ccccc2CC1O` (centres undefined), the LC retention time is reported as 7.28 min. `O=C1CC(N2CCN(C3CC(=O)N(CCc4ccccc4)C3=O)CC2)C(=O)N1CCc1ccccc1` (centres undefined) gave an LC retention time of 12.4 min. For `Cc1ccc(C(=O)Nc2ccccc2C(=O)N2CCN(C)CC2)cc1`, the LC retention time was 8.88 min. Work on `Cc1cc2[nH]c(=O)[nH]c2cc1N` yielded an LC retention time of 6.14 min. Compound `NCc1ccc2[nH]c(=O)[nH]c2c1` has an LC retention time of 6.29 min. Work on `CCCCN1CNC(=S)N(c2ccccc2C)C1` yielded an LC retention time of 12.6 min. In the case of `COC(=O)c1ccc(Cn2c(=O)n(C)c(=O)c3ccccc32)cc1`, the LC retention time is reported as 13.1 min. Compound `O=C1CC2(CCCC2)CC(=O)N1CCCCN1CCN(c2ncccn2)CC1` has an LC retention time of 10.2 min. `CC(C)(C)NCC(O)COc1nsnc1N1CCOCC1` (centres undefined) gave an LC retention time of 9.09 min. `CC1CCCN(CC(O)CN)C1` (centres undefined) showed an LC retention time of 7.32 min. Compound `Cc1[nH]c(=S)[nH]c1-c1ccccc1` has an LC retention time of 9.06 min. With `COc1cccc(OC)c1OCc1nc2ccccc2nc1C` the LC retention time was 13.3 min. In the case of `CCn1c2ccccc2c2cc(CNC)ccc21`, the LC retention time is reported as 10.2 min. For `Cc1cc(C)[nH]n1`, the LC retention time was 6.99 min. `O=C1NCCc2c1[nH]c1ccccc21` gave an LC retention time of 10.1 min. With `O=C(CN1C(=O)c2ccccc2C1=O)Nc1ccccc1C(=O)N1CCN(c2ccccc2)CC1` the LC retention time was 13.1 min. In the case of `Cc1ccc(C(=O)NCCn2cccc2)cc1`, the LC retention time is reported as 11.9 min. With `COc1ccccc1NC(=O)C(=Cc1ccc(OC)c(OC)c1)NC(=O)c1ccccc1` the LC retention time was 13.5 min. For `CC1CNCCN1` (centres undefined), the LC retention time was 6.48 min. Compound `CC(=O)C=CC=C(C)CCC=C(C)C` has an LC retention time of 17.1 min. In the case of `C=CCNCC=C`, the LC retention time is reported as 7.07 min. In the case of `CCN(CC)CC(=O)Nc1c(C)cccc1C`, the LC retention time is reported as 9.19 min. Compound `Cc1nn(-c2ccc(NC(=O)c3ccco3)cc2)c(=O)c2ccccc12` has an LC retention time of 12 min. With `CC(C)c1ccccc1NC(=O)c1cc2ccccc2o1` the LC retention time was 15.9 min. Compound `O=C(O)c1cc(-c2ccccc2)c(C(=O)O)cn1` has an LC retention time of 6.42 min. `CCCc1ccccc1N` showed an LC retention time of 9.54 min. `Cc1ccc(-c2cnc3ccccc3[n+]2C)c(C)c1` gave an LC retention time of 10.4 min. In the case of `Cc1c(O)c(=O)ccn1C`, the LC retention time is reported as 6.47 min. Work on `CCOC(=O)CN` yielded an LC retention time of 6.34 min. In the case of `COc1ccc2nc(C)c3c(c2c1)OC(C)C3` (centres undefined), the LC retention time is reported as 9.25 min. `CC(C)(C)c1ccc(C2Nc3ccccc3C(=O)N2c2ccccc2)cc1` (centres undefined) showed an LC retention time of 16.7 min. Work on `O=S(=O)(O)c1ccc(Nc2ccccc2)cc1` yielded an LC retention time of 7.25 min. With `O=c1oc2ccccc2c2nc(-c3ccncc3)ncc12` the LC retention time was 12.2 min. In the case of `c1cncc(CNCc2cccnc2)c1`, the LC retention time is reported as 7.11 min. `Cc1ccc(C(=O)Cn2c(=N)n(C)c3ccccc32)cc1` gave an LC retention time of 10.6 min. `O=Cc1ccc2cccnc2c1` gave an LC retention time of 8.85 min. In the case of `CC(=O)C(=C1NC(C)(C)Cc2cc(C)c(C)cc21)c1ccccc1`, the LC retention time is reported as 17.6 min. In the case of `CN(Cc1ccccc1)C(=S)Nc1cccnc1`, the LC retention time is reported as 9.65 min. Compound `Cc1ccc(OC(=O)CCC(=O)N2CCN(C(=O)CCC(=O)Oc3ccc(C)cc3)CC2)cc1` has an LC retention time of 14.3 min. Compound `O=C1CCCC(O)=C1C1(O)C(=O)c2ccccc2C1=O` has an LC retention time of 8.21 min. `CC(C(=O)c1ccccc1)[n+]1ccccc1` (centres undefined) showed an LC retention time of 8.43 min. With `CN1C2CCC1C(C(=O)O)C(OC(=O)c1ccccc1)C2` (centres undefined) the LC retention time was 8.54 min. `CCCCCCCN1C(=O)c2ccccc2C1(O)Cc1ccccc1` (centres undefined) showed an LC retention time of 16.8 min. `CSc1cccc2cccnc12` showed an LC retention time of 11 min. With `CN1CCn2c1nc(N1CCOCC1)nc2=O` the LC retention time was 7.25 min. Work on `OCC(CO)(CO)c1ccccn1` yielded an LC retention time of 4.36 min. `NCCCc1ccccn1` showed an LC retention time of 6.8 min. Work on `CCOc1ccccc1NC(=O)c1cc(=O)[nH]c(=O)[nH]1` yielded an LC retention time of 9.16 min. `O=C(C=Cc1ccccc1)c1ccc(O)cc1` showed an LC retention time of 12.9 min. Compound `CNC1C(OC2C(OC3C(O)C(O)C(N=C(N)N)C(O)C3N=C(N)N)OC(C)C2(O)C=O)OC(CO)C(O)C1O` (centres undefined) has an LC retention time of 7.82 min. `CC(C)NCCNC(C)C` gave an LC retention time of 7.16 min. `CCN1CC(CCN2CCOCC2)C(c2ccccc2)(c2ccccc2)C1=O` (centres undefined) gave an LC retention time of 9.72 min. `Oc1ccc2c3c1OC1C(O)CCC4(O)C(C2)N(CC2CCC2)CCC314` (centres undefined) showed an LC retention time of 8.75 min. `CCc1ccc(NCCC(=O)c2ccc(C(C)(C)C)cc2)cc1` showed an LC retention time of 16.5 min. In the case of `Nc1ccc2ncn(Cc3ccccc3)c(=O)c2c1`, the LC retention time is reported as 9.74 min. Work on `CCN(CC)CCNc1cccc2ccccc12` yielded an LC retention time of 10.1 min. Work on `CC(C)CNC(=O)c1cccc2c1-c1ccccc1C2=O` yielded an LC retention time of 13.3 min. Work on `C=CCN(C)CC=C` yielded an LC retention time of 6.98 min. `Cn1c2c(c(=O)n(C)c1=O)C(CC(=O)O)C(=O)N2` (centres undefined) gave an LC retention time of 6.06 min. Work on `c1ccc2[nH]ncc2c1` yielded an LC retention time of 9.07 min. Compound `CCOC(=O)c1cnc2ccccc2n1` has an LC retention time of 10.7 min. Compound `Cc1ccccc1N` has an LC retention time of 7.59 min. For `COc1cc(C(=O)Nc2ccc(N3CCCC3=O)cc2)cc(OC)c1OC`, the LC retention time was 10.8 min. `COC(=O)c1ccc2[nH]c3c(c2c1)CCCC3` showed an LC retention time of 14.8 min. For `CC(C)c1ccccc1NC(=S)NCCN1CCN(C(=S)Nc2ccccc2C(C)C)CC1`, the LC retention time was 12.5 min. `CCCCNCCCC` gave an LC retention time of 8.38 min. With `Nc1ccc(N2CCOCC2)c(N)c1` the LC retention time was 7.33 min. With `CCOC(=O)C1(c2ccccc2)CCN(CCc2ccc(N)cc2)CC1` the LC retention time was 10.1 min. `O=c1ccc2ccccc2[nH]1` showed an LC retention time of 8.83 min. Work on `c1ccc(Cc2nc3ccccc3[nH]2)cc1` yielded an LC retention time of 9.23 min. In the case of `CN(C)C=CC=O`, the LC retention time is reported as 5.98 min. In the case of `COC(C)C(N)=O` (centres undefined), the LC retention time is reported as 2.9 min. In the case of `CCOC(=O)C(N)Cc1ccccc1` (centres undefined), the LC retention time is reported as 9.03 min. Compound `COC(=O)c1cccc(N=C2N=C(N)c3ccccc32)c1` has an LC retention time of 9.59 min. Compound `Cc1ccc2c(c1)C(=O)c1cnc(C)cc1-2` has an LC retention time of 10.3 min. For `Cc1cnc(C)cn1`, the LC retention time was 7.49 min. Work on `c1ccc(CNc2ccccn2)cc1` yielded an LC retention time of 8.6 min. `c1nc2c(ccc3[nH]cnc32)[nH]1` showed an LC retention time of 6.84 min. With `CCCCCCCCCC(=O)N(C)C` the LC retention time was 16.6 min. `CCOc1nc(N(c2ccccc2)c2ccccc2)[nH]c(=O)n1` showed an LC retention time of 11.7 min. `c1ccc2c(NC3=NCCS3)cccc2c1` showed an LC retention time of 9.27 min. Compound `O=C(O)CCNc1n[nH]c(=O)[nH]c1=O` has an LC retention time of 5.51 min. Compound `COC1N(c2ccccc2)N=C(c2ccccc2)N1c1ccccc1` (centres undefined) has an LC retention time of 16.8 min. `O=C(c1ccccc1)c1nc2ccccc2[nH]c1=O` gave an LC retention time of 11.2 min. Compound `CCCC[N+]1(CCCC)CC[N+](CCCC)(CCCC)CC1` has an LC retention time of 9.16 min. Compound `O=CC1C(=O)Nc2ccccc21` (centres undefined) has an LC retention time of 8.65 min. For `Nc1ncnc(N2CCCc3ccccc32)n1`, the LC retention time was 9.57 min. Work on `C[N+]1(CC=C2COCO2)CCCCC1` yielded an LC retention time of 7.48 min. Compound `CN(C)Cc1ccccc1` has an LC retention time of 7.53 min. Work on `Cc1cc(=O)n(C)c(=O)n1CCCN1CCCC1` yielded an LC retention time of 7.09 min. In the case of `Cc1ccc(CN2CCN(N=Cc3ccco3)CC2)cc1`, the LC retention time is reported as 9.55 min. Compound `C[N+](C)(C)c1cnc(=O)[nH]c1` has an LC retention time of 2.5 min. With `CNC1C(OC2OC(CO)C(N)C(O)C2O)OC2CC(N)C(OC3C(N)CC(N)C(O)C3O)OC2C1O` (centres undefined) the LC retention time was 8.39 min. In the case of `CC1(C)CC(NCc2ccncc2)CC(C)(C)N1`, the LC retention time is reported as 7.45 min. `Cc1cc2n[nH]nc2cc1C` showed an LC retention time of 9.69 min. `CC1CCCCN1C(=O)c1ccccc1N` (centres undefined) gave an LC retention time of 11.1 min. Compound `Cc1cccc(C)c1NC1=NCCCS1` has an LC retention time of 9.58 min. For `CNC(=S)Nc1ccc2c(c1)CCCC2`, the LC retention time was 12.5 min. In the case of `CC[N+](CC)(CC)Cc1ccccc1`, the LC retention time is reported as 8.32 min. Work on `CC(=NNC(=O)C[n+]1ccccc1)c1ccccc1` yielded an LC retention time of 8.76 min. With `CC(=O)N1c2ccc(N)cc2CC1C` (centres undefined) the LC retention time was 7.53 min. Work on `C=C(C)CC1C=CCC(CC(=C)C)N1` (centres undefined) yielded an LC retention time of 9.63 min. `CC1CCc2[nH]c3ccccc3c2C1` (centres undefined) showed an LC retention time of 16.9 min. Work on `CC(C)NC(=S)N1CCC(Cc2ccccc2)CC1` yielded an LC retention time of 16 min. `NC1Cc2ccccc2NC1=O` (centres undefined) gave an LC retention time of 7.26 min. In the case of `COc1c(C)cccc1C(=O)NN`, the LC retention time is reported as 8.52 min. Compound `CN1CCN(C(=O)c2cc(C(C)(C)C)cc(C(C)(C)C)c2)CC1` has an LC retention time of 11.6 min. For `Cc1ccc(NC(=O)Cn2c(=O)c3c(C)cc(C)nc3n(-c3ccccc3)c2=O)c(C)c1`, the LC retention time was 15.2 min. With `Nc1c(S(=O)(=O)O)[nH]c(=O)[nH]c1=O` the LC retention time was 1.22 min. Work on `CCCCCCC1(C)OCOC1=CC[N+](C)(C)C` (centres undefined) yielded an LC retention time of 10.8 min. With `COC(=O)C1CCCNC1=O` (centres undefined) the LC retention time was 6.61 min. For `NCCCN1CCc2ccccc21`, the LC retention time was 8.54 min. In the case of `C1=CCNC1`, the LC retention time is reported as 2.99 min. In the case of `NC(=O)c1ccccc1NC(=O)CN1CCCC1`, the LC retention time is reported as 7.36 min. Compound `O=c1cc(Nc2ccccc2)c2ccccc2o1` has an LC retention time of 12.2 min. For `Nc1ccc2oc3c(c2c1)CCCC3`, the LC retention time was 9.57 min. `Cc1nc2c(ccc3ccccc32)c(C)c1C` showed an LC retention time of 10.9 min.

Reference: the RepoRT retention time repository
